Laboratory results reported in US5446207A, “Anti-dyslipidemic agents” (Harbor Branch Oceanographic Institution, Inc., priority 1993, dated 1995).

Target: T1, recombinant CETP (rCETP) (Homo sapiens, UniProt P11597)
T1 sequence (P11597 18-493): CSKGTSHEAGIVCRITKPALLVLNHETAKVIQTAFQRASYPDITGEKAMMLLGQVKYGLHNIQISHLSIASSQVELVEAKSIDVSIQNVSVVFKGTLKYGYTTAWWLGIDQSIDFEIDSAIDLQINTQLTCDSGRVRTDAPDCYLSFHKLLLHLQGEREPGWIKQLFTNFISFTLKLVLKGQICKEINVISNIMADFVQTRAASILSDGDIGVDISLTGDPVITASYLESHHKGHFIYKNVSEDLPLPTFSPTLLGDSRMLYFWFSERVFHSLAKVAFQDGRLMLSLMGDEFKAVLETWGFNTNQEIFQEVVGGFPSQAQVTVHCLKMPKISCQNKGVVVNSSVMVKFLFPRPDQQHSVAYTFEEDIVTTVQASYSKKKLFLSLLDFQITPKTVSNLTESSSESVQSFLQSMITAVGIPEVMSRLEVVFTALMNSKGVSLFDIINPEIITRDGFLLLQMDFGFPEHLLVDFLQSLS
Test: CETP scintillation proximity assay (transfer of [3H]cholesteryl esters from HDL to biotinylated LDL)
Type: biochemical
Conditions: for IC50: rCETP, 37° C., 4 hours, SPA, read-out: IC50 (inhibition of CETP transfer activity); for activity in the cholesteryl ester transfer protein (CETP) assay: statement in words
Experimental: This assay used a commercially available CETP Scintillation Proximity Assay kit (Amersham TRKQ7015). In this assay, the transfer of [^3 H]cholesteryl esters from high density lipoprotein (HDL) to biotinylated low density lipoproteins (LDL) was measured following incubation of donor and acceptor particles in the presence of recombinant CETP (rCETP; see Wang S. et al J. Biol. Chem. (1992) 267:1746-17490 which is herein incorporated by reference). Following incubation, the reaction was terminated and transfer was measured in a single step addition of streptavidin SPA beads, formulated in an assay terminal buffer (Amersham). The rate of increase in signal was proportional to the transfer of [^3 H]cholesteryl ester by CETP.
To 96-well microtiter plates ([…] Microlite) was pipetted 5 μl of sample (or buffer for blank) of appropriate dilution. […] As a control, 5 μl of CETP monoclonal antibody TP-1, 1:10 dilution from ascites was added. The reaction was started by adding 45 μl of the following mixtures to each well.
20 μl of assay buffer (from kit)
10 μl ^3 H]Cholesteryl ester-HDL (from kit)
10 μl of biotinylated LDL (from kit)
The contents of the plate were mixed briefly by tapping the plate gently and then the plate was sealed with parafiim to prevent evaporation during the incubation. The plates were incubated at 37° C. for 4 hours. After incubation the reaction was stopped by adding 200 μl of streptavidin beads to each well. The beads were shaken gently before addition. The mixture was incubated at room temperature for 30 minutes to allow the assay to come to equilibrium with beads. Dpm were counted on a TopCount (Packard Instrument Company, Downers Grove, Ill.) (A conventional scintillation counter with window settings fully open may also be used).

## COc1ccc(O)c(O)c1CC1=C(C)CC[C@H]2C(C)(C)CCC[C@]12C (relative stereo) [Compound A, wiedendioI-A]
  IC50: 2000 nM
  activity in the cholesteryl ester transfer protein (CETP) assay: active

## COc1ccc(O)c(O)c1/C=C1\[C@@H](C)CC[C@H]2C(C)(C)CCC[C@]12C (relative stereo) [Compound B, wiedendioI-B]
  IC50: 2900 nM
  activity in the cholesteryl ester transfer protein (CETP) assay: active
